{
  "source": "patent US10150772B2",
  "about": "“Crystalline forms of PARP inhibitors” (priority 2014, dated 2018)",
  "key": {"[1]": {"type": "physicochemical", "conditions": "for Stability to the test conditions (in words): 28 day test period", "protocol": "Identity, Assay, and Purity by HPLC\nTesting was performed on a calibrated and validated Agilent 1200 Rapid Resolution High Performance Liquid Chromatography (HPLC) system designated LC-0430-AD or LC-418-1D. The system comprises a binary SL pump, degasser, high performance autosampler SL with a fraction collector, thermostated column compartment with a 2 valve column switcher, and a DAD SL detector. All standard solutions and samples were prepared in Class A glass volumetric flasks and were placed in autosampler vials. Standard weighings were done using a calibrated Mettler analytical balance. The sample preparations were centrifuged using an Eppendorf microcentrifuge. The primary chromatography data was acquired and integrated using Empower 2 software. Microsoft Office Excel 2003 was used for the calculation of results.\nSolid State Stability of Salts at 40° C. and 75% Humidity:\nSamples of the form to be studied (15-20 mg) were weighed into standard 1.5 mL HPLC vials (32×11.6 mm) and stored uncapped for 0, 7, 14 and 28 days in a 40° C. and 75% RH stability chamber. Samples were removed on the indicated day and capped. Measurements of XRPD, DSC, TGA and HPLC Identity by Purity and Assay measurements were completed on each time point sample."}, "[2]": {"assay": "Dynamic vapor sorption (DVS), water sorption", "type": "physicochemical", "conditions": "for DVS sorption behaviour (in words) / Total uptake (moisture): 25° C.; for Total uptake (moisture): entire RH range", "protocol": "Dynamic Vapor Sorption (DVS):\nDVS experiments have been carried out using the DVS-HT instrument (Surface Measurement Systems, London, UK). This instrument measures the uptake and loss of vapor gravimetrically using a recording ultra-microbalance with a mass resolution of ±0.1 μg. The vapor partial pressure (±1.0%) around the sample is controlled by mixing saturated and dry carrier gas streams using electronic mass flow controllers. The desired temperature is maintained at ±0.1° C. The samples (1-10 mg) were placed into the DVS-HT and DVS-1 instruments at the desired temperature.\nThe sample was loaded and unloaded at 40% RH and 25° C. (typical room conditions). A moisture sorption isotherm was performed as outlined below (2 scans giving 1 complete cycle). The software uses a least squares minimization procedure together with a model of the mass relaxation, to predict an asymptotic value. The measured mass equilibration value must be within 2% of that predicted by the software before proceeding to the next % RH value. The minimum equilibration time was set to 1 hour and the maximum to 4 hours."}, "[3]": {"assay": "Estimation of water solubility", "type": "physicochemical", "protocol": "Estimation of Water Solubility: Ten mg portions of the salt forms to be studied were weighed into a standard 1.5 mL HPLC vial (32×11.6 mm). […] An estimation of solubility was based on the volume of water necessary to dissolve the known weight of sample."}, "[4]": {"conditions": "40° C. and 75% RH, day 14, HPLC"}, "[5]": {"conditions": "40° C. and 75% RH, day 28, HPLC"}, "[6]": {"conditions": "initial, before 40° C. and 75% RH stability testing"}},
  "note": "Counter-ions that a name gives are not always drawn. Like-named read-outs stand apart in the source and are kept apart here.",
  "data": [
    {"compound": "COc1cccc2[nH]c3c4c(c5c(c3c12)C(=O)N(CN1CCN(C)CC1)C5=O)CCC4", "note": "[L-Malate Salt, Form A1]", "values": [
      {"measurement": "Stability to the test conditions (in words)", "setting": "[1]; 40° C. and 75% RH", "value": "stable to the test conditions"},
      {"measurement": "HPLC Purity", "setting": "[1]; 40° C. and 75% RH, day 0", "value": 99.5, "unit": "%"},
      {"measurement": "TGA", "setting": "[1]; 40° C. and 75% RH, day 0", "value": 0.1, "unit": "%"},
      {"measurement": "COMPOUND A Assay", "setting": "[1]; 40° C. and 75% RH, day 0, HPLC", "value": 69.9, "unit": "%"},
      {"measurement": "COMPOUND B Assay", "setting": "[1]; 40° C. and 75% RH, day 0, HPLC", "value": 0.2, "unit": "%"},
      {"measurement": "HPLC Purity", "setting": "[1]; 40° C. and 75% RH, day 7", "value": 99.3, "unit": "%"},
      {"measurement": "TGA", "setting": "[1]; 40° C. and 75% RH, day 7", "value": 0.2, "unit": "%"},
      {"measurement": "XRPD", "setting": "[1]; 40° C. and 75% RH, day 7", "value": "No change"},
      {"measurement": "COMPOUND A Assay", "setting": "[1]; 40° C. and 75% RH, day 7, HPLC", "value": 71.8, "unit": "%"},
      {"measurement": "COMPOUND B Assay", "setting": "[1]; 40° C. and 75% RH, day 7, HPLC", "value": 0.4, "unit": "%"},
      {"measurement": "HPLC Purity", "setting": "[1]; 40° C. and 75% RH, day 14", "value": 98.8, "unit": "%"},
      {"measurement": "TGA", "setting": "[1]; 40° C. and 75% RH, day 14", "value": 0.8, "unit": "%"},
      {"measurement": "XRPD", "setting": "[1]; 40° C. and 75% RH, day 14", "value": "No change"},
      {"measurement": "COMPOUND A Assay", "setting": "[1]; [4]", "value": 72.0, "unit": "%"},
      {"measurement": "COMPOUND B Assay", "setting": "[1]; [4]", "value": 0.5, "unit": "%"},
      {"measurement": "HPLC Purity", "setting": "[1]; 40° C. and 75% RH, day 28", "value": 98.4, "unit": "%"},
      {"measurement": "TGA", "setting": "[1]; 40° C. and 75% RH, day 28", "value": 0.3, "unit": "%"},
      {"measurement": "XRPD", "setting": "[1]; 40° C. and 75% RH, day 28", "value": "No change"},
      {"measurement": "COMPOUND A Assay", "setting": "[1]; [5]", "value": 71.7, "unit": "%"},
      {"measurement": "COMPOUND B Assay", "setting": "[1]; [5]", "value": 0.8, "unit": "%"},
      {"measurement": "DVS sorption behaviour (in words)", "setting": "[2]; DVS", "value": "very little water absorption during the first cycle from 40% RH to 70% RH"},
      {"measurement": "Total uptake (moisture)", "setting": "[2]; DVS", "value": "~2", "unit": "%"}
    ]},
    {"compound": "COc1cccc2[nH]c3c4c(c5c(c3c12)C(=O)N(CN1CCN(C)CC1)C5=O)CCC4", "note": "[L-Pyroglutamate Salt, Form A1]", "values": [
      {"measurement": "Stability to the test conditions (in words)", "setting": "[1]; 40° C. and 75% RH", "value": "stable over a 28 day test period, except for a slow increase in Compound B content"},
      {"measurement": "DVS sorption behaviour (in words)", "setting": "[2]; DVS", "value": "massive uptake in moisture"},
      {"measurement": "Total uptake (moisture)", "setting": "[2]; DVS", "value": "~27", "unit": "%"},
      {"measurement": "Water absorption, first cycle", "setting": "[2]; DVS, RH range of 40-75%", "value": "~2", "unit": "%"}
    ]},
    {"compound": "COc1cccc2[nH]c3c4c(c5c(c3c12)C(=O)N(CN1CCN(C)CC1)C5=O)CCC4.O=C(O)C[C@H](O)C(=O)O", "note": "[L-malate (2 Eq.)]", "values": [
      {"measurement": "Est. Water Solubility", "setting": "[3]", "value": ">100", "unit": "mg/mL"},
      {"measurement": "COMPOUND B After 40/75", "setting": "[1]; after 40° C. and 75% RH stability testing", "value": 1.2, "unit": "%"},
      {"measurement": "COMPOUND A Initial", "setting": "[1]; [6]", "value": 71.3, "unit": "%"},
      {"measurement": "COMPOUND B Initial", "setting": "[1]; [6]", "value": 0.2, "unit": "%"},
      {"measurement": "TGA", "setting": "[1]; initial, comparison of salts", "value": 0.1, "unit": "%"},
      {"measurement": "DVS", "setting": "[2]; water sorption reversible or irreversible", "value": "Irreversible"}
    ]}
  ]
}
